Laboratory results reported in ChEMBL document CHEMBL1154510, “A new antiangiogenic C24 oxylipin from the soft coral Sinularia numerosa” (Bioorg Med Chem, 2009).
Calls of active or inactive are those of the source. The rule behind the calls is not given here.

Tests used:
Format in all cases: functional, cell-based
[1] = tested on: EA.hy 926; assay: Inhibition of tube formation in human EAhy926 cells at 20 uM after 24 hrs by phase-contrast microscopy
[2] = tested on: EA.hy 926; assay: Inhibition of tube formation in human EAhy926 cells at 40 uM after 24 hrs by phase-contrast microscopy
[3] = tested on: EA.hy 926; assay: Inhibition of tube formation in human EAhy926 cells at 10 uM pre-incubated for 12 hrs measured after 24 hrs by phase-contrast microscopy
[4] = tested on: EA.hy 926; assay: Inhibition of tube formation in human EAhy926 cells at 50 uM after 24 hrs by phase-contrast microscopy
[5] = tested on: EA.hy 926; assay: Inhibition of tube formation in human EAhy926 cells at 25 uM after 24 hrs by phase-contrast microscopy
[6] = tested on: EA.hy 926; assay: Inhibition of tube formation in human EAhy926 cells after 24 hrs by phase-contrast microscopy

CCCCC/C=C\C=C\C(O)C/C=C\C/C=C\CCCC(=O)O (stereo not given)
Activity [1]: Active | Activity [2]: Active

Cc1cccc(Nc2cc(Cl)nc(SCC(=O)O)n2)c1C
Activity [3]: Active

CCCCC/C=C\C[C@@H](O)/C=C/C=C/C=C\[C@@H](O)CCCC(=O)O
Activity [3]: Active

CC/C=C\C/C=C\C/C=C\C/C=C\C/C=C\CCCC(=O)O
Activity [4]: inactive

CC1(COc2ccc(CC3SC(=O)NC3=O)cc2)CCCCC1 (stereo not given)
Activity [3]: Active

CCCCC/C=C/C=C/C(O)CCCCCCCC(=O)O (stereo not given)
Activity [5]: Active

CC/C=C\C/C=C\C/C=C\C/C=C\C/C=C\C/C=C\CCC(=O)O
Activity [4]: inactive

CCCCC/C=C\C=C\C(O)C/C=C\C/C=C\C/C=C\CCCCC(=O)O (stereo not given)
Activity [6]: Dose-dependent effect | Activity [3]: Active
